Laboratory results from US20260055114A1, “IMIDAZO[1,2-B]PYRIDAZINE INHIBITORS OF CYCLIN-DEPENDENT KINASES” (H. LEE MOFFITT CANCER CENTER AND RESEARCH INSTITUTE, INC., priority 2022, published 2026).

How the values were obtained:
[1] = tested on: MDA-MB-231 cell line; experiment: Antiproliferative activity, MDA-MB-231 cell line (GI50); assay type: cell-based; conditions: Homo sapiens
[2] = target: CDK12 (Homo sapiens, UniProt Q9NYV4); experiment: Inhibition of cyclin-dependent kinase 12 (% enzyme activity at 1 uM and IC50); assay type: biochemical; conditions: for remaining activity at 1 µM: 1 uM compound
CDK12, sequence (Q9NYV4 whole entry): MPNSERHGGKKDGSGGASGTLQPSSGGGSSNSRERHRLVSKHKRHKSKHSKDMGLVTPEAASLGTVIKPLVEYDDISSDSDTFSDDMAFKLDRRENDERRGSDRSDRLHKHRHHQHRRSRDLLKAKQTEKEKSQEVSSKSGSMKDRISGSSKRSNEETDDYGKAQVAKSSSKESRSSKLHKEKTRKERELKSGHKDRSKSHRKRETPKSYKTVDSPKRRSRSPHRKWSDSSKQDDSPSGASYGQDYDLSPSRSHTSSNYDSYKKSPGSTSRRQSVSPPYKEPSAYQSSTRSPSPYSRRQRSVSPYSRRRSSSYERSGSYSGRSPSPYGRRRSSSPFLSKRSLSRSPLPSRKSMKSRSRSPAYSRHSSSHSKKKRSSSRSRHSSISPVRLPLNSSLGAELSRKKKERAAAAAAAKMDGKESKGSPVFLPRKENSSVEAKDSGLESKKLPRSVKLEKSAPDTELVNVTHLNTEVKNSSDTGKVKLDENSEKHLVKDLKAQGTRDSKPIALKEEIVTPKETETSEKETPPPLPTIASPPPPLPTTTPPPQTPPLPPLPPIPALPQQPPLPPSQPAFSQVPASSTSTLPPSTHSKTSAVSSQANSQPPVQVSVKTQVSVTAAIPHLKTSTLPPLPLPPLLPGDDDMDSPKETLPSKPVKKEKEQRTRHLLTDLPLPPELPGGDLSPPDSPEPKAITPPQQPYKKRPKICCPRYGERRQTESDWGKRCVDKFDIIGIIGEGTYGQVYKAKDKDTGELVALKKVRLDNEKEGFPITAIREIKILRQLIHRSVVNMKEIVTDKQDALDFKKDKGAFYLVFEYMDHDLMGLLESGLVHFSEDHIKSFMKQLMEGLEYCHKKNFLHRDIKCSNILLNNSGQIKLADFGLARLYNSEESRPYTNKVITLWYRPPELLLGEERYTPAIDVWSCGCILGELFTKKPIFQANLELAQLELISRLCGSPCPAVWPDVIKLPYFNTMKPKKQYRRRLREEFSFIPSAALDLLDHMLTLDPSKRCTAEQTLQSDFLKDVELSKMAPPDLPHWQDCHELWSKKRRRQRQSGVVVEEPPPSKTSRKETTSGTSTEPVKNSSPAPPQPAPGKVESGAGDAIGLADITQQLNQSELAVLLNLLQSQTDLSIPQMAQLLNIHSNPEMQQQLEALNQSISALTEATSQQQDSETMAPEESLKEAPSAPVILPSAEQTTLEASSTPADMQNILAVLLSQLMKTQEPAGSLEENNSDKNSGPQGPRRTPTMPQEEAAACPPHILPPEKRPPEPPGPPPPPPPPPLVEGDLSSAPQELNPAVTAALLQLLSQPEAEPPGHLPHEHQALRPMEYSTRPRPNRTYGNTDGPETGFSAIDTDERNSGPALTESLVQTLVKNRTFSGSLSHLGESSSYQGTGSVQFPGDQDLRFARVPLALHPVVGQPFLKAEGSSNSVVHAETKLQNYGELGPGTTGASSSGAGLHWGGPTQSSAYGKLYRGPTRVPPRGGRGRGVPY
CDK12, sequence (O75909 whole entry partner): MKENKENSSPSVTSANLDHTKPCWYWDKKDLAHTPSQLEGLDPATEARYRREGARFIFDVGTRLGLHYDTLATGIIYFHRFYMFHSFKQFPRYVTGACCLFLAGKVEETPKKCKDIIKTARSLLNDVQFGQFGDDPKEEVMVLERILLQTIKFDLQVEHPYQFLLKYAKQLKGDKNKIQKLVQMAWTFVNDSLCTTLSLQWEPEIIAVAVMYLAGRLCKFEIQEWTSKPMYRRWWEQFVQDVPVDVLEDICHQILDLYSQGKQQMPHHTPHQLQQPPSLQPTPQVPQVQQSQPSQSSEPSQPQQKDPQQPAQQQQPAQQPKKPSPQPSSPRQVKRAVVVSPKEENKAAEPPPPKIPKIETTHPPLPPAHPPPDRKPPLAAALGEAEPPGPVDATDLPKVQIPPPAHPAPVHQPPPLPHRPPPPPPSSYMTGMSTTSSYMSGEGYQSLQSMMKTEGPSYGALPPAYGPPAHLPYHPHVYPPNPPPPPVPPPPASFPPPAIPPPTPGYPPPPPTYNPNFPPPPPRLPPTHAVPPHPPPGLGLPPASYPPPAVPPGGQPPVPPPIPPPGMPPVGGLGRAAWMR

[3] = tested on: CCNK; experiment: CCNK degradation (DC50, Dmax); assay type: cell-based; conditions: for Dmax (%): CCNK degradation

Row | GI50 [1] [nM] | IC50 [2] [nM] | DC50 [3] [nM] | remaining activity at 1 µM [2] [%] | Compound | Dmax (%) [3] [%]
1 | 4280 | 3000 | 1300 | – | CN1CCN(c2cc(NCc3nc4c(F)c(F)ccc4[nH]3)c3ncc(-c4cnn(C)c4)n3n2)CC1 [Cmpd 5, N-((4,5-difluoro-1H-benzo[d]imidazol-2-yl)methyl)-3-(1-methyl-1H-pyrazol-4-yl)-6-(4-methylpiperazin-1-yl) imidazo[1,2-b]pyridazin-8-amine] | 65
2 | 3840 | 3000 | 460 | – | Cn1cc(-c2cnc3c(NCc4nc5c(F)c(F)ccc5[nH]4)cc(N4CCOCC4)nn23)cn1 [Cmpd 6, N-((4,5-difluoro-1H-benzo[d]imidazol-2-yl)methyl)-3-(1-methyl-1H-pyrazol-4-yl)-6-morpholinoimidazo[1,2-b]pyridazin-8-amine] | 75
3 | 424 | 10000 | 1300 | – | CN1CCN(c2cc(NCc3nc4cc(Cl)c(Cl)cc4[nH]3)c3ncc(-c4cnn(C)c4)n3n2)CC1 [Cmpd 8, N-((5,6-dichloro-1H-benzo[d]imidazol-2-yl)methyl)-3-(1-methyl-1H-pyrazol-4-yl)-6-(4-methylpiperazin-1-yl) imidazo[1,2-b]pyridazin-8-amine] | 100
4 | 564 | 9560 | 680 | – | Cn1cc(-c2cnc3c(NCc4nc5cc(Cl)c(Cl)cc5[nH]4)cc(N4CCOCC4)nn23)cn1 [Cmpd 9, N-((5,6-dichloro-1H-benzo[d]imidazol-2-yl)methyl)-3-(1-methyl-1H-pyrazol-4-yl)-6-morpholinoimidazo[1,2-b]pyridazin-8-amine] | 95
5 | 7930 | 1000 | 5600 | – | Cc1ccnc2[nH]c(CNc3cc(N4CCN(C)CC4)nn4c(-c5cnn(C)c5)cnc34)nc12 [Cmpd 11, 3-(1-methyl-1H-pyrazol-4-yl)-N-((7-methyl-3H-imidazo[4,5-b]pyridin-2-yl)methyl)-6-(4-methylpiperazin-1-yl) imidazo[1,2-b]pyridazin-8-amine] | 60
6 | 5690 | 1000 | 2100 | – | Cc1ccnc2[nH]c(CNc3cc(N4CCOCC4)nn4c(-c5cnn(C)c5)cnc34)nc12 [Cmpd 12, 3-(1-methyl-1H-pyrazol-4-yl)-N-((7-methyl-3H-imidazo[4,5-b]pyridin-2-yl)methyl)-6-morpholinoimidazo[1,2-b]pyridazin-8-amine] | 65
7 | 1770 | 5000 | 10000 | 84 | CC(C)n1cc(-c2cnc3c(NCc4nc5cc(Cl)c(Cl)cc5[nH]4)cc(N4CCN(C)CC4)nn23)cn1 [Cmpd 14, N-((5,6-dichloro-1H-benzo[d]imidazol-2-yl)methyl)-3-(1-isopropyl-1H-pyrazol-4-yl)-6-(4-methylpiperazin-1-yl) imidazo[1,2-b]pyridazin-8-amine] | –
8 | 4110 | 3000 | 2100 | 68 | CC(C)n1cc(-c2cnc3c(NCc4nc5cc(Cl)c(Cl)cc5[nH]4)cc(N4CCOCC4)nn23)cn1 [Cmpd 15, N-((5,6-dichloro-1H-benzo[d]imidazol-2-yl)methyl)-3-(1-isopropyl-1H-pyrazol-4-yl)-6-morpholinoimidazo[1,2-b]pyridazin-8-amine] | 65
9 | 465 | – | 370 | – | CN1CCN(c2cc(NCc3nc4cc(Cl)c(Cl)cc4[nH]3)c3ncc(-c4cnn(C(F)F)c4)n3n2)CC1(C)C [Cmpd 49, N-((5,6-dichloro-1H-benzo[d]imidazol-2-yl)methyl)-3-(1-(difluoromethyl)-1H-pyrazol-4-yl)-6-(3,3,4-trimethylpiperazin-1-yl) imidazo[1,2-b]pyridazin-8-amine] | 95
10 | 5000 | 1000 | – | – | CN(C)c1cc(NCc2nc3cccc(Cl)c3[nH]2)c2ncc(-c3ccsc3)n2n1 [Cmpd 73, N8-((7-chloro-1H-benzo[d]imidazol-2-yl)methyl)-N6,N6-dimethyl-3-(thiophen-3-yl) imidazo[1,2-b]pyridazine-6,8-diamine] | –
